According to ChEMBL document CHEMBL1147322, “X-ray crystal structure of acrovestone, a cytotoxic principle from Acronychia pedunculata” (1989):
Converted amounts (≈) assume the structure as drawn.

How the values were obtained:
Assay type in all cases: functional
[1] = tested on: A549; test: Cytotoxicity against human A549 cells; conditions: read-out: ED50 (the source's name)
[2] = tested on: P388; test: Cytotoxicity against mouse P388 cells; conditions: read-out: ED50 (the source's name)
[3] = tested on: KB; test: Cytotoxicity against human KB cells at 0.5 ug/ml
[4] = tested on: L1210; test: Cytotoxicity against mouse L1210 cells; conditions: read-out: ED50 (the source's name)

## COc1c(CC=C(C)C)c(O)c([C@H](CC(C)C)c2c(O)c(CC=C(C)C)c(O)c(C(C)=O)c2O)c(O)c1C(C)=O [ACROVESTONE]
[1]
  EC50: 0.98 µg/mL (≈ 1.77 µM)
[2]
  EC50: 3.28 µg/mL (≈ 5.91 µM)
[3]
  inhibition at 0.5 µg/mL: 100%
[4]
  EC50: 2.95 µg/mL (≈ 5.32 µM)
